According to publication PMC3224947, “Inhibition of HIV-1 integrase nuclear import and replication by a peptide bearing integrase putative nuclear localization signal” (Retrovirology, 2009):

What was measured:
[1] = tested on: COS-7 cells (nuclear import); test: Microinjection of FITC-BSA conjugates into COS-7 cells, nuclear import; format: cell-based; conditions: 37°C, 2 h after injection, fluorescence microscopy (Fig. 3A-E)
Text: Nuclear import transport substrates
Proteins and peptides used in this work as transport substrates were covalently attached to either fluorescein isothiocyanate-labeled bovine serum albumin (FITC-BSA) or biotinylated BSA (Bb) molecules (Sigma). Sulfosuccinimidyl-4-(N-maleimidomethyl) cyclohexane-1-carboxylate (sulfo-SMCC) was used as the cross-linker to give FITC-BSA-protein/peptide and Bb-protein/peptide conjugates, as described previously.
Microinjection of fluorescently labeled transport substrates
FITC-BSA-IN, FITC-BSA-180-IN, FITC-BSA-152-IN, FITC-BSA-NLS-IN, as well as unlabeled FITC-BSA, were microinjected into the cytoplasm of cultured COS-7 cells as described previously. The CompInject AIS2 automated microinjection system (Cell Biology Trading, Hamburg, Germany) was used following the method developed by Graessmann and Graessman. Cultured mammalian cells were incubated at 37°C for 2 h after injection and observed by fluorescence microscopy.

[2] = tested on: HIV-1 IN (nuclear import); test: Immunostaining of intracellular localization of IN in stably transfected, cell-cycle arrested HeLaP4/IN-expressing cells; format: cell-based; conditions: aphidicolin 5 μg/ml arrested HeLaP4/IN cells; 150 μM peptide, 6 h; confocal microscopy (Fig. 1)
Protocol: Localization studies of transfected IN in cultured cells by immunostaining
HeLaP4/IN-expressing cells were grown on chamber slides (Nunc). […] Cells were fixed and immunostained essentially as described previously with several modifications. Briefly, after fixation cells were blocked with 5% (w/v) BSA (IgG free) (Jackson) in PBS for 60 min. […] Cells were washed five times with PBS + 0.05% (v/v) Tween 20. Then the cells were incubated with a second antibody, Cy3-conjugated anti-rabbit antibody (Jackson) (1:200) at room temperature for 60 min followed by five washes with PBS + 0.05% Tween 20. For detection of DNA, cells were stained with DAPI according to the manufacturer's protocol. The slides were prepared with mounting media (Bio-Rad) and immunofluorescent cells were detected with a confocal microscope.

[3] = tested on: HIV-1 IN (nuclear import); test: Immunostaining of IN localization in HIV-1-infected HeLaP4 cells; format: cell-based; conditions: aphidicolin-arrested HeLaP4, 150 μM peptide 2 h, then HIV-1 MOI 25, fixed 10 h PI (Fig. 7B)
Protocol: Localization studies of IN in HIV-1-infected cultured cells by immunostaining
HeLaP4 cells were grown on chamber slides. […] After incubation with the peptides, cells were infected with wild-type HIV-1 at a multiplicity of infection (MOI) of 25. Cells were fixed and stained as described above with the following modifications: fixation was performed at 10 h PI, the first antibody was used at a dilution of 1:50, the second antibody at a dilution of 1:100.

HIV-1 in TZM-bl cells = test: MAGI assay, HIV-1 infection of TZM-bl cells (β-galactosidase reporter); format: cell-based; conditions: TZM-bl cells (Fig. 9A, B); dividing/non-dividing not distinguished
Protocol: HIV-1 titration by multinuclear activation of a galactosidase indicator (MAGI) assay
Quantitative titration of HIV-1 was carried out using the MAGI assay, as described previously. Briefly, TZM-b1 cells were grown in 96-well plates at 10^4 cells/well and incubated for 12 h at 37°C. Peptides were then added and after an additional 2 h of incubation, the cells were infected with 50 μl of serially diluted HIV-1. To obtain cell-cycle arrested cells, 5 μg/ml of aphidicolin was added 2 h before the experiment. Cultured cells were fixed 2 days PI and β-galactosidase was estimated. Blue cells were counted under a light microscope at 200× magnification.

[4] = tested on: HIV-1 replication in Sup-T1 cells; test: Time-of-addition assay, viral p24 production in Sup-T1 cells; format: cell-based; conditions: non-active peptides, NLS-IN and Pen at 62.5 μM in time-of-addition; sentence cites Fig. 9 as a whole
Protocol: Sup-T1 cells were infected with wild-type HIV-1 at a MOI of 2, and the test compounds were added at different time points after infection (0, 2, 4,..., 24 h). Viral p24 production was determined at 48 h PI [67]. Dextran sulfate was tested at 20 μM, AZT at 2 μM, NLS-IN-Pen, NLS-IN and Pen at 62.5 μM, LEDGF 402-411 at 12.5 μM [41].

IN-importin α complex = test: Co-immunoprecipitation of IN and importin α from HIV-1-infected cells; conditions: HIV-1-infected H9 lymphocytes, 150 μM peptide 2 h prior to infection, harvested 10 h PI (Fig. 7A)

| Substance | nuclear import after microinjection [1] | nuclear import / intracellular localization of IN [2] | intranuclear IN in infected cells [3] | HIV-1 infection inhibition (HIV-1 in TZM-bl cells) | inhibition of HIV-1 (Fig. 9) [4] | IN-importin α interaction (co-IP) (IN-importin α complex) |
| --- | --- | --- | --- | --- | --- | --- |
| FITC-BSA: fluorescein isothiocyanate-labeled bovine serum albumin | no nuclear import was observed | – | – | – | – | – |
| RQIKIWFQNRRMKWKK [Pen] | – | did not have any effect on nuclear import of IN | some intranuclear fluorescently labeled IN could be observed | no inhibition of HIV-1 infection | Inhibition was not observed | neither the SV40-mut-NLS-Pen (or a scrambled NLS-IN [23], not shown) nor the Pen peptide itself promoted dissociation of the IN-importin α complex |
